This passage reports IC50 results from US20150152083A1, “Compounds and Compositions for Modulating EGFR Activity” (IRM LLC, A Delaware Limited Liability Company, priority 2012, published 2015).

The test addresses EGFR(L858R/T790M) (Homo sapiens, UniProt P00533, L858R/T790M). The experiment in a line: EGFR biochemical assay (HTRF), IC50 determination. Further details: purchased from Carna (GST-a.a. 669-1210); purchased Carna. To be noted: 10 μM ATP. The protocol:
All EGFR biochemical assays were carried out by HTRF method. The EGFR(L858RT790M) enzyme were purchased from Carna (GST-a.a. 669-1210). The substrate peptide Biotin-TK-peptide was purchased from Cis-Bio. The reaction mixtures contained 1 μM peptide substrate, 10 μM ATP, and 0.036 nM EGFR(L858RT790M) in the reaction buffer (50 mM HEPES pH 7.1, 10 mM MgCl2, 0.01% BSA, 1 mM TCEP and 0.1 mM Na3VO4) at a final volume of 10 μL. All reactions were carried out at room temperature in white ProxiPlate™ 384-well Plus plates (PerkinElmer) and were quenched with 5 μL of 0.2 M EDTA at 60 min Five μL of the detection reagents (2.5 ng PT66K and 0.05 μg SAXL per well) were added, the plates were incubated at room temperature for 1 h and then read in EnVision reader. […] For no-preincubation condition, the compounds were added to the assay solution containing ATP and peptide, and the reaction was initiated by addition of enzyme. For pre-incubation conditions, the compounds were added to the assay solution containing enzyme and peptide, and pre-incubated at room temperature for desired period of time, then the reaction was initiated by addition of ATP.
(In TR-FRET formats the signal depends on donor and acceptor labels being close together.)

The mark [1] stands for this setting: EGFR (L858R/T790M) IC50 (μM) 90 min pre-incubation, 90 min pre-incubation.
The mark [2] stands for this setting: no pre-incubation, read-out: EGFR (L858R/T790M) IC50 (μM) No pre-incubation.

Where two headings read alike, the source gives them in different places. Where only a bound is given, the exact number is not on record here.

Chain of EGFR(L858R/T790M) (P00533 669-1210 T790M/L858R): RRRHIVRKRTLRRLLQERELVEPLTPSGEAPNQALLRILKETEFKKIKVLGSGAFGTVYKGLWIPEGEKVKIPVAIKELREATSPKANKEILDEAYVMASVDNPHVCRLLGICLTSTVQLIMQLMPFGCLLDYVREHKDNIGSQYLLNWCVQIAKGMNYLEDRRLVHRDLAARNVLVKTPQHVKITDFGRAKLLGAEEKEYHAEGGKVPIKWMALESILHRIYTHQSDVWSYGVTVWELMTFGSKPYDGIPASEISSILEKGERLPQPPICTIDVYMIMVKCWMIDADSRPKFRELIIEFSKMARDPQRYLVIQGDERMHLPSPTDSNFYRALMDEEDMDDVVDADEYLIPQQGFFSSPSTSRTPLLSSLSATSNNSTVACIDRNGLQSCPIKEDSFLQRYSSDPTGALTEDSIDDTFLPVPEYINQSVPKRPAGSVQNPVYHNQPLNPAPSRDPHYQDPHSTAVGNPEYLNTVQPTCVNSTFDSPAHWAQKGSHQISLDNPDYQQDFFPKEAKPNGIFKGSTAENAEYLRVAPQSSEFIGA

Turning to `C/C=C/C(=O)Nc1cccc(-n2c(NC(=O)c3cccc(C(F)(F)F)c3)nc3cc(C)ccc32)c1` [Example 2-14, N-{1-[3-(but-2-enamido)phenyl]-5-methyl-1H-1,3-benzodiazol-2-yl}-3-(trifluoromethyl)benzamide], the IC50 reads like this: under setting [1], 0.101 µM; under setting [2], 0.36 µM.
In the same order, the values of `C=CC(=O)Nc1ccc(-n2c(NC(=O)c3cccc(C(F)(F)F)c3)nc3cc(C)ccc32)cc1` [Example 2-11, N-{5-methyl-1-[4-(prop-2-enamido)phenyl]-1H-1,3-benzodiazol-2-yl}-3-(trifluoromethyl)benzamide] are 0.15 µM and 1.04 µM.
As for `C=CC(=O)N[C@H]1CCCCC1n1c(NC(=O)c2cccc(C(F)(F)F)c2)nc2cc(C)ccc21` (stereo partly drawn) [Example 8-6, N-{5-methyl-1-[(1R,25)-2-(prop-2-enamido)cyclohexyl]-1H-1,3-benzodiazol-2-yl}-3-(trifluoromethyl)benzamide], the IC50 reads like this: under setting [1], 0.079 µM; under setting [2], greater than 50 µM.
Turning to `C=CC(=O)N[C@H]1CC[C@@H](n2c(NC(=O)c3cccc(C(F)(F)F)c3)nc3cc(C)ccc32)C1` (single isomer, unassigned) [Example 9-1A], the IC50 was 0.08 µM under setting [1] and 0.75 µM under setting [2].
In the case of `C=CC(=O)Nc1cc(-n2c(NC(=O)c3ccnc(C)c3)nc3cccc(Cl)c32)ccc1C` [Example 2-17, N-(1-(3-acrylamido-4-methylphenyl)-7-chloro-1H-benzo[d]imidazol-2-yl)-2-methylisonicotinamide], the IC50 stood at 0.006 µM under setting [1] and 0.065 µM under setting [2].
The corresponding values for `C=CC(=O)N[C@H]1CC[C@@H](n2c(NC(=O)c3cccc(C(F)(F)F)c3)nc3cc(C)ccc32)CC1` [Example 8-8, N-{5-methyl-1-[(1S,4S)-4-(prop-2-enamido)cyclohexyl]-1H-1,3-benzodiazol-2-yl}-3-(trifluoromethyl)benzamide] are 0.21 µM and 0.46 µM.
The corresponding values for `C=CC(=O)Nc1ccc(C)c(-n2c(NC(=O)c3ccnc(C)c3)nc3cccc(Cl)c32)c1` [Example 2-16, N-(1-(5-acrylamido-2-methylphenyl)-7-chloro-1H-benzo[d]imidazol-2-yl)-2-methylisonicotinamide] are 1.07 µM and 9.38 µM.
In the same order, the values of `C=CC(=O)NC1CCC(n2c(NC(=O)c3cccc(C(F)(F)F)c3)nc3cc(C)ccc32)C1` (racemic) [Example 8-3, N-{5-methyl-1-[3-(prop-2-enamido)cyclopentyl]-1H-1,3-benzodiazol-2-yl}-3-(trifluoromethyl)benzamide] are 0.15 µM and 0.72 µM.
For `C=CC(=O)N[C@H]1CC[C@H](n2c(NC(=O)c3cccc(C(F)(F)F)c3)nc3cc(C)ccc32)CC1` [Example 8-9, N-{5-methyl-1-[(1R,4R)-4-(prop-2-enamido)cyclohexyl]-1H-1,3-benzodiazol-2-yl}-3-(trifluoromethyl)benzamide], the IC50 reads like this: under setting [1], 0.57 µM; under setting [2], 0.22 µM.
For `C=CC(=O)N[C@@H]1CC[C@H](n2c(NC(=O)c3cccc(C(F)(F)F)c3)nc3cc(C)ccc32)C1` (single isomer, unassigned) [Example 9-1B], the IC50 turned out to be 0.15 µM under setting [1] and 0.29 µM under setting [2].
Turning to `C=CC(=O)NCCn1c(NC(=O)c2cccc(C(F)(F)F)c2)nc2cc(C)ccc21` [Example 8-5, N-{5-methyl-1-[2-(prop-2-enamido)ethyl]-1H-1,3-benzodiazol-2-yl}-3-(trifluoromethyl)benzamide], the IC50 by setting is: under setting [1], 0.82 µM; under setting [2], 2.64 µM.
As to `Cc1cc(C(=O)Nc2nc3cccc(Cl)c3n2-c2cc(NC(=O)/C=C/CN(C)C)ccc2C)ccn1` [Example 2-15, (E)-N-(7-chloro-1-(5-(4-(dimethylamino)but-2-enamido)-2-methylphenyl)-1H-benzo[d]imidazol-2-yl)-2-methylisonicotinamide], the IC50 reads like this: under setting [1], 1.06 µM; under setting [2], 20 µM.
In the same order, the values of `C=CC(=O)Nc1cc(C)cc(-n2c(NC(=O)c3ccnc(C)c3)nc3cccc(Cl)c32)c1` [Example 2-18, N-(1-(3-acrylamido-5-methylphenyl)-7-chloro-1H-benzo[d]imidazol-2-yl)-2-methylisonicotinamide] are 0.046 µM and 0.627 µM.
In the same order, the values of `C=CC(=O)Nc1ccccc1-n1c(NC(=O)c2cccc(C(F)(F)F)c2)nc2cc(C)ccc21` [Example 2-12, N-{5-methyl-1-[2-(prop-2-enamido)phenyl]-1H-1,3-benzodiazol-2-yl}-3-(trifluoromethyl)benzamide] are 0.1 µM and 1.8 µM.
Take `C=CC(=O)N[C@@H]1CCCC[C@H]1n1c(NC(=O)c2cccc(C(F)(F)F)c2)nc2cc(C)ccc21` [Example 8-7, N-{5-methyl-1-[(1R,2R)-2-(prop-2-enamido)cyclohexyl]-1H-1,3-benzodiazol-2-yl}-3-(trifluoromethyl)benzamide]: the IC50 reads like this: under setting [1], 0.31 µM; under setting [2], 2.3 µM.
